Source: patent publication US8076287B2, “Cyclic hexadepsipeptides, processes for their production and their use as pharmaceuticals” (priority 2006, dated 2011)
≈ marks a conversion by molar mass, not a printed value. Read-outs that look alike come from different tables or passages of the source.

Key:
[1] = test system: S. pneumoniae LSPQ 3412 (Penicillin sensitive); test: MIC broth dilution, antibacterial activity; type: cell-based; settings: Streptococcus pneumoniae, MH + 2% lysed horse blood
[2] = test system: S. pneumoniae LSPQ 3349 (Penicillin resistant); test: MIC broth dilution, antibacterial activity; type: cell-based; settings: Streptococcus pneumoniae, MH + 2% lysed horse blood
B. subtilis ATCC ™ 23857 = test: MIC broth dilution, antibacterial activity; type: cell-based; settings: Bacillus subtilis, ATCC23857, BHI+ medium
M. Luteus ATCC ™ 9341 = test: MIC broth dilution, antibacterial activity; type: cell-based; settings: Micrococcus luteus, ATCC9341, MH medium
C. difficile ATCC ™ 9689 = test: microbe, parasite or virus in culture; type: cell-based, Clostridium difficile; settings: Clostridioides difficile, ATCC9689
C. perfringens HER1390 = test: microbe, parasite or virus in culture; type: cell-based; settings: Clostridium perfringens
C. diphtheriae HER1356 = test: MIC broth dilution, antibacterial activity; type: cell-based; settings: Corynebacterium diphtheriae; C. diphtheriae HER1356 (strain C7); MH medium
[3] = test system: PC-3 (prostate adenocarcinoma); test: In vitro cytotoxic activity (propidium iodide GI50); type: cell-based; settings: 96 hrs
[4] = test system: HT-29 (colorectal carcinoma); test: as above; type: cell-based; settings: Homo sapiens, 96 hrs
[5] = test system: MDA-MB-231 (mammary gland adenocarcinoma); test: as above; type: cell-based; settings: Homo sapiens, 96 hrs
SF-268 (CNS) = test: as above; type: cell-based; settings: Homo sapiens, 96 hrs
[6] = test system: S. aureus ATCC ™ 6538P (MSSA); test: MIC broth dilution, antibacterial activity; type: cell-based; settings: Staphylococcus aureus, MH medium, 35° C., 16 to 20 hours
[7] = test system: HUVEC (human umbilical vein endothelial cells); test: In vitro cytotoxic activity (propidium iodide GI50); type: cell-based; settings: 72 hours
[8] = In vivo acute toxicity (MTD); parameters: species or system CD-1 nu/nu mice; settings: CD-1 nu/nu, mouse, saline with 10% EtOH and 7.5% polysorbate 80, read-out: maximum tolerated dose (MTD)
Experimental: In vivo toxicity: The acute toxicity in CD-1 nu/nu mice of Compound 1 was determined in a saline solution comprising 10% EtOH and 7.5% polysorbate 80. When given i.p., the maximum tolerated dose (MTD) was ≧5 mg/kg. The MTD was 2.5 mg/kg when Compound 1 was administered i.v.

[9] = test system: Enterococcus faecalis ATCC ™ 51299 (VRE); test: MIC broth dilution, antibacterial activity; type: cell-based; settings: BHI+ medium
[10] = test system: S. epidermidis ATCC ™ 12228; test: MIC broth dilution, antibacterial activity; type: cell-based; settings: Staphylococcus epidermidis, ATCC12228, MH medium, 35° C., 16 to 20 hours
[11] = test system: Enterococcus faecalis ATCC ™ 29212 (VSE); test: MIC broth dilution, antibacterial activity; type: cell-based; settings: ATCC29212, BHI+ medium
[12] = test system: Candida albicans ATCC™10231; test: Antifungal activity, NCCLS M27-A broth dilution; type: cell-based; settings: ATCC10231, after 48 hours, RPMI 1640
Experimental: Testing of antifungal activity was performed according to NCCLS method (NCCLS. Reference Method for Broth Dilution Antifungal Susceptibility Testing of Yeasts; Approved Standard. NCCLS document M27-A (ISBN 1-56238-328-0). NCCLS, 940 West Valley Road, Suite 1400, Wayne, Pa. 19087-1898 USA). Compound 1 was prepared as 100× stock solutions in DMSO, with concentrations ranging from 3.2 mg/mL to 0.003 mg/mL (a two-fold dilution series over 11 points). An aliquot of each 100× stock solution was diluted 50-fold in test medium described below to give a set of eleven (11) 2× solutions. 50 μL of each of the eleven 2× solutions was aliquoted into the corresponding well of a 12-well row, with the final well reserved for medium alone control. Inoculum density for the Candida albicans ATCC™10231 indicator strain was adjusted to OD600=0.1 in 5 mL 0.85% saline, then further diluted 1/1000 in RPMI 1640 medium. 50 μL of the final dilution (in test medium) of each indicator strain was added to each well of a 12-well row. This brings the final dilution of the test article or control compound in solution to 1×. The final inoculum was approximately 5×10^4 CFU/ml.

Sheep red blood cells = test: In vitro toxicity: hemolytic activity; type: cell-based; settings: 2 hrs at 37° C., prepared in DMSO
Experimental: In vitro toxicity: Sheep red blood cells were exposed to Compound 1 for 2 hrs at 37° C. at concentrations ranging from 2 to 64 μg/mL. Hemolytic activity was determined by monitoring the amount of hemoglobin released spectrophotometrically.

[13] = test system: S. aureus MRS3 ATCC ™ 700699 (MRSA-hVISA); test: MIC broth dilution, antibacterial activity; type: cell-based; settings: Staphylococcus aureus, MH medium, 35° C., 16 to 20 hours
[14] = test system: human MX-1 breast carcinoma xenograft; test: In vivo efficacy in human breast cancer xenograft model; parameters: species or system Harlan female athymic nude mice
Experimental: The antitumor activity of Compound 1 was tested in vivo in a human MX-1 breast carcinoma model in mice, formulated in 10% ethanol, 7.5% ethanolic polysorbate 80 (1 g/mL in ethanol), and 82.5% saline. Harlan female athymic nude mice (12 weeks of age on Day 1 (D1)) were used for this study. Human MX-1 carcinoma was maintained in athymic nude mice by serial engraftment. A tumor fragment (1 mm^3) was implanted subcutaneously into the right flank of each test mouse. Tumors were monitored twice weekly and then daily as their mean volume approached 80-120 mm^3.
On D1, animals were sorted into treatment groups 1 to 4 (groups 1 to 3: 9 mice; group 4:10 mice), with tumor sizes of 63-144 mm^3 and group mean tumor sizes of about 99 mm^3. Tumor volumes were calculated as (width^2×length) divided by 2. Tumor weight was estimated with the assumption that 1 mg is equivalent to 1 mm^3 of tumor volume.
Starting on Day 1, each group was treated with dosing volumes of 0.2 mL/20-g mouse in Groups 1 and 2, and 0.1 mL/20-g mouse for Groups 3 and 4, scaled to the body weight of each animal, and according to the following protocol:
Tumor measurements were taken twice weekly using calipers and were converted to tumor weight. Tumor weight was estimated with the assumption that 1 mg is equivalent to 1 mm^3 of tumor volume (tumor volume was determined as above). Body weights were also recorded daily for Day 1 to 5, and then twice weekly.
Each animal was euthanized when its neoplasm reached the predetermined endpoint size (1,500 mm^3). The “time to endpoint” (TTE) for each mouse was calculated by the following equation:
[formula] where “TTE” is expressed in days, “endpoint volume” is in mm^3, “b” is the intercept, and “m” is the slope of the line obtained by linear regression of a log-transformed tumor growth data set. The data set comprised the first observation that exceeded the study endpoint volume and the three consecutive observations that immediately preceded the attainment of the endpoint volume.
Treatment efficacy was determined from “tumor growth delay” (TGD), which is defined as the increase in “T” the median TTE for a treatment group compared to “C” the median for control group 1: TGD=T−C, expressed in days, or as a percentage of the median TTE of the control group (% TGD=(TGD/C)×100).
The “percentage of tumor growth inhibition” (TGI) is calculated as:
[formula] wherein MTVtreated and MTVvehicle are respectively the “median tumor volume” for the animals treated with Compound 1 and animals receiving the vehicle, on day 18 and day 0. Two-tailed statistical analyses were done using GraphPad Prism™ software.
The “MTV(n)” is defined as the median tumor volume on Day 53 in the number of animals remaining, n, whose tumors have not attained endpoint volume.

SMILES	MIC [1] [mg/L]	MIC [2] [mg/L]	MIC (B. subtilis ATCC ™ 23857) [mg/L]	MIC (M. Luteus ATCC ™ 9341) [mg/L]	MIC (C. difficile ATCC ™ 9689) [mg/L]	MIC (C. perfringens HER1390) [mg/L]	MIC (C. diphtheriae HER1356) [mg/L]	GI50 [3] [µM]	GI50 [4] [µM]	GI50 [5] [µM]	GI50 (SF-268 (CNS)) [µM]	further results
CN[C@H](CC(C)C)C(=O)N[C@H]1C(=O)N[C@@H](CC(N)=O)C(=O)N[C@H]2C(=O)N[C@H]3C(=O)N[C@H](C(=O)N[C@H](C(=O)O)c4cc(O)cc(O)c4-c4cc3ccc4O)[C@H](O)c3ccc(c(Cl)c3)Oc3cc2cc(c3O[C@@H]2O[C@H](CO)[C@@H](O)[C@H](O)[C@H]2O[C@H]2C[C@](C)(N)[C@H](O)[C@H](C)O2)Oc2ccc(cc2Cl)[C@H]1O [Vancomycin, reference compound]	0.25	0.5	0.25 (≈ 0.173 µM)	2 (≈ 1.38 µM)	0.25 (≈ 0.173 µM)	0.5 (≈ 0.345 µM)	0.5 (≈ 0.345 µM)					
COc1cccc2c1C(=O)c1c(O)c3c(c(O)c1C2=O)C[C@@](O)(C(C)=O)C[C@@H]3O[C@H]1C[C@H](N)[C@H](O)[C@H](C)O1 [Daunorubicin, reference compound]								0.011	0.02	0.009	0.019	
CCC1OC(O)(C(C)(O)C(=O)NC2C(=O)N3NCCCC3C(=O)N(O)CC(=O)N3NCCCC3C(=O)N3CCC(C)(O)C3C(=O)N(O)C(C(C)C)C(=O)OC2C(C)C)CCC1CC(C)C (centres unmarked) [Compound 1]	0.156	0.031	0.004 (≈ 0.00432 µM)	0.063 (≈ 0.0681 µM)	< 0.008	< 0.008	< 0.008	0.066	0.037	0.028	0.025	MIC [6]: 0.031 mg/L (≈ 0.0335 µM); GI50 [7]: 0.019 µM; MTD ([8]; ip): ≥ 5 mg/kg; MTD ([8]; iv): 2.5 mg/kg; MIC [9]: 1 mg/L (≈ 1.08 µM); MIC [10]: 0.094 mg/L (≈ 0.102 µM); MIC [11]: 0.5 mg/L (≈ 0.54 µM); MIC [12]: 8 mg/L (≈ 8.65 µM); hemolytic activity (concentration) (Sheep red blood cells): 12.8 µM; hemolytic activity (concentration) (Sheep red blood cells; 2 to 64 μg/mL tested): 11.8 µg/mL; MIC [13]: 0.5 mg/L (≈ 0.54 µM); percentage of tumor growth inhibition (TGI) ([14]; 1 mg/kg i.p., median tumor volume vs vehicle, day 18): 51.6%; MTV(3), median tumor volume on Day 53 in animals remaining ([14]; 1 mg/kg i.p., n=3 animals not at endpoint volume): 6 mm^3; body weight loss ([14]; 1 mg/kg i.p., on Day 8, mean body weight): 13%; tumor growth delay (TGD) ([14]; 1 mg/kg i.p., when compared with vehicle): 82%; body weight loss during q4d dosing ([14]; period Compound 1 was given once every four days): no severe body weight loss
